Laboratory results: publication PMC5612938, “A multiple biomarker assay for quality assessment of botanical drugs using a versatile microfluidic chip” (Scientific Reports, 2017)

Legend:
[1] = molecular target: T1, Thrombin (from human plasma) (Homo sapiens, UniProt P00734); experiment: on-chip affinity screening, binding degree by LC-MS peak area vs protein-free control (thrombin); settings: for thrombin; [(As − Ac)/As] × 100, sample vs protein-free control, EIC peak area
T1 construct: Thrombin (from human plasma); purchased Sigma-Aldrich; host or cells: human plasma
Text: (§1) In addition to quality assessment, the microfluidic chip can also function as “affinity chromatography” to identify bioactive constituents from botanical drugs in a convenient and efficient manner. After the bioassay, the bound phytochemicals were dissociated from the enzymes and accurately identified by LC-MS. The material used for the chambers in microfluidic system, polydimethylsiloxane (PDMS), is apt to adsorb small molecules nonspecifically, thus a protein-free control was applied to reflect the degree of nonspecific binding of compounds to the chip. Peak areas were obtained from the extracted ion chromatography (EIC) in an ion-trap mass spectrometry (IT-MS), and binding degree (binding degree % = [(As − Ac)/As] × 100, where As and Ac were the peak area in the sample and control, respectively) was calculated to indicate binding specificity. […] All these peaks were unambiguously confirmed via comparisons with chemical standards in terms of retention time and mass spectra (Table 2), and five thrombin inhibitors (danshensu, salvianolic acid B, salvianolic acid C, rosmarinic acid and ginsenoside Rg1) and six ACE inhibitors (astragaloside IV, ononin, formononetin, calycosin, danshensu and salvianolic acid B) were preliminarily identified. […] Enzyme inhibition assays of these hit compounds were then performed to verify the screening results. […] Compounds showing an inhibition rate over 70% were subjected to IC50 measurement.
(§2) MBs (10 mg/mL) were diluted 10 times in PB or Tris-HCl buffer, and 10 μL of the diluted MBs (1 mg/mL) were injected into one channel of the chip using a syringe infusion pump (Harvard Apparatus, USA) and retained by an external magnet. Then, 10 μL of thrombin or ACE solution was added and incubated with MBs for two hours at room temperature to form enzyme-MB complexes. The magnet was manually controlled to move MBs back and forth to enhance the ratio of reaction. Subsequently, MBs were washed twice in assay buffer and magnetically transferred to the other channel through the fluidic bridge, whose opening and closing was controlled by a pneumatic valve. Next, 10 μL of sample solutions of tested drug and 10 μL of enzymatic substrate were sequentially infused to the channel by the pump and incubated with the enzyme. When the enzymatic reaction was finished, the MBs were retained in the channel, and air was injected into the channel from the inlet using a syringe to push all the reacted solution to a 384-well plate. The absorbance of the solution was then monitored at 405 nm (for S-2238) or 340 nm (for FAPGG) using an Infinite F200 spectrophotometer (Tecan, Männedorf, Switzerland). Moreover, after detection, the reaction channel was washed three times by assay buffer to remove unbound constituents. 20 μL of 80% aqueous methanol was then injected and incubated with MBs for one hour to dissociate the bound constituents. The resulting solutions of replicates were combined, evaporated by a centrifugal evaporator, reconstituted in 80% aqueous methanol, centrifuged at 10,000 rpm for 10 min, and analyzed by LC-MS for chemical identification.
An Agilent 1100 HPLC system (Agilent Technologies, Waldbronn, Germany) coupled with an LCQ Deca XP^plus IT-MS (Thermo Finnigan, San Jose, CA, USA) equipped with an electrospray ionization (ESI) interface was employed for structure elucidation of the bounded constituents. […]

ACE (from rabbit lung) = molecular target: T2, ACE (from rabbit lung) (Oryctolagus cuniculus, UniProt P12822); experiment: on-chip affinity screening, binding degree by LC-MS peak area vs protein-free control (ACE); settings: for ACE; [(As − Ac)/As] × 100, sample vs protein-free control, EIC peak area
T2 construct: ACE (from rabbit lung); purchased Sigma-Aldrich; host or cells: rabbit lung
T2 sequence (P12822 34-1310): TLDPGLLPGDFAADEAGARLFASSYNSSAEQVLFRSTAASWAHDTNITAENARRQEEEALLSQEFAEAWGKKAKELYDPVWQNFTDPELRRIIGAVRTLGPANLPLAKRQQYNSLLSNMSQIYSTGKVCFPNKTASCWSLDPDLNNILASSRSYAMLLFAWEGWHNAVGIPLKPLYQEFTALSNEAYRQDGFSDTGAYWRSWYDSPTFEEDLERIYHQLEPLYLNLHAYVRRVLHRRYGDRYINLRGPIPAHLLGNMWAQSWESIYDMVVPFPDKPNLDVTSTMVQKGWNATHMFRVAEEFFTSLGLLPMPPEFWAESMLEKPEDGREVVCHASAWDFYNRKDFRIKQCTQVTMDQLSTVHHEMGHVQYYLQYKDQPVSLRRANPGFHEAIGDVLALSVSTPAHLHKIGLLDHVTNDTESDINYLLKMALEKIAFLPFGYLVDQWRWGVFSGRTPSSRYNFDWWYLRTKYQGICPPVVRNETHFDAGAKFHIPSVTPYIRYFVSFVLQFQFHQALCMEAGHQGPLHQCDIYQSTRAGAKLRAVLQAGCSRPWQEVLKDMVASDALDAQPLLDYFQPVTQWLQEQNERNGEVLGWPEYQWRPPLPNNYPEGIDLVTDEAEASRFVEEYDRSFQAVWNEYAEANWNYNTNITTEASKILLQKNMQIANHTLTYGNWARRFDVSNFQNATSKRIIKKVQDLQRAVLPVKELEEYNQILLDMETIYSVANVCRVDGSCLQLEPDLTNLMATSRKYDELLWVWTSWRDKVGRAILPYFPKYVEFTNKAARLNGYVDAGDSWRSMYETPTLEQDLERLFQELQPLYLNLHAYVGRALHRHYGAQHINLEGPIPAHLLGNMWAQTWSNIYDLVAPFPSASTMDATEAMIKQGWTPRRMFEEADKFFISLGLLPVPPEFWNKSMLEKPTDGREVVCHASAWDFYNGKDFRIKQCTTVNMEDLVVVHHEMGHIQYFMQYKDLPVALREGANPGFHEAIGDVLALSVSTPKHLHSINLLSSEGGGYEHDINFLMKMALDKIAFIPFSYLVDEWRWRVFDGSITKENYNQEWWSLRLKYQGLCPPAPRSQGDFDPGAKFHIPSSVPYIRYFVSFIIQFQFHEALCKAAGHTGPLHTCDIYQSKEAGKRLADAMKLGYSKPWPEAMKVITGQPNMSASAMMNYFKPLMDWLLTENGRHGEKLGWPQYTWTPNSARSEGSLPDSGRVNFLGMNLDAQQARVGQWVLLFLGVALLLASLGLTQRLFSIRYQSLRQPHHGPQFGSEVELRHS
Text: as §1, §2
An Agilent 1100 HPLC system (Agilent Technologies, Waldbronn, Germany) coupled with an LCQ Deca XP^plus IT-MS (Thermo Finnigan, San Jose, CA, USA) equipped with an electrospray ionization (ESI) interface was employed for structure elucidation of the bounded constituents. The analysis was performed in negative ionization mode under following operation parameters: scan range m/z 100–1500; capillary voltage −15 V; source voltage −3 kV; capillary temperature 350 °C; sheath gas (N2) 60 arb; auxiliary gas (N2) 20 arb.

Structure (SMILES)	Binding degree (%) [1]	Binding degree (%) (ACE (from rabbit lung))
O=C(O)C(O)Cc1ccc(O)c(O)c1 (stereo not shown) [Danshensu]	50.9%	57.2%
O=C(/C=C/c1ccc(O)c2c1[C@H](C(=O)O[C@H](Cc1ccc(O)c(O)c1)C(=O)O)[C@@H](c1ccc(O)c(O)c1)O2)O[C@H](Cc1ccc(O)c(O)c1)C(=O)O [Salvianolic acid B]	34.9%	41.3%
